From patent US20210353613A1, “TREATMENT OF NEUROLOGICAL DISEASE” (Aclipse One Inc., priority 2018, published 2021) come the findings set out here.

Format in all cases: cell-based
In one experiment the test system is induced MN cells. Put plainly: Co-culture of iAstrocytes with human induced motor neurons from the same donors: MN survival. The note with it: for MN survival on Day 3: 10 μM. The protocol: Induced Astrocytes from healthy controls or ALS patients were also used in a co-culture assay to determine their effect on the survival of induced MN cells from the same healthy controls or ALS patients.
The preparation of iAstrocytes and induced MN cells has been described in Example 1. […] The MN survival on Day 3 was evaluated as a percentage of survived MN cells observed on Day 1.

The next experiment relates to misfolded SOD1. Put plainly: Misfolded SOD1 immunocytochemistry (B8H10 antibody) in human iAstrocytes. The conditions noted are these: for SOD1 misfolding in human iAstrocytes: FIGS. 7 and 8 legends, iAstrocytes from controls and C9orf72, SOD1, sporadic ALS patients; for misfolded SOD1 positive cells: 10 μM, 24 hours. As to the method: The preparation of iAstrocytes has been described in Example 1. At Day 5, the 96 well plate was coated with fibronectin diluted 1:400 in PBS and allowed to set for cell adhesion. iAstrocytes were first washed in an appropriate volume of PBS before incubating for 5 min at 37° C. in lml of accutase. The accutase was neutralized in an appropriate volume of iAstrocyte medium and cells were collected in a 15 ml falcon and centrifuged at 200g for 4 min to form a pellet. The pellet was resuspended in an appropriate volume of medium and the cells were counted using a Burker hemocytometer. The cells were seeded at the desired density and were left for 24 hours to adhere. […]
At Day 7, iAstrocytes were fixed in 4% PFA. These were then stained with misfolded SOD1 antibody (B8H10), CD44 to identify cell area and DAPI. Columbus analysis software was used to quantify immunocytochemistry images. In each condition, the number of nuclei was established. In astrocytes stained for misfolded SOD1 protein aggregates, the number, intensity and area of misfolded SOD1 aggregates within the nucleus and surrounding perinuclear area were quantified as well as the percentage of cells positive for misfolded SOD1 accumulation.

Experiment [1] relates to mouse motor neuron (MN) survival. Put plainly: Co-culture of patient iAstrocytes with mouse Hb9-GFP motor neurons: MN survival. The conditions noted are these: for mouse Hb9GFP+ motor neuron rescue: percentage of motor neuron survival: FIG. 4, 10uM, 3 days after administration, compared to vehicle (DMSO), sALS, SOD1, C9orf72 iAstrocytes. The protocol: Induced astrocytes from control or ALS patients were used in a co-culture assay to determine their effect on mouse motor neuron (MN) survival. Mouse embryonic stem cell-derived motor neurons expressing green fluorescence protein (GFP) under the control of the HB9 promoter were sorted and added to iAstrocytes from patients and controls. […] The survival of mouse MNs was monitored on Day 1 and 3 with confocal image acquisition.
The MN survival on Day 3 was evaluated as a percentage of survived MN cells observed on Day 1.

Where [2] appears, read: iAstrocytes and induced MNs from ALS patient with C9orf72 mutation.
Where [3] appears, read: iAstrocytes from three ALS patients with C9orf72 mutation, mouse MNs.

“Also recorded” adds a separate entry of the source.

On to `CN1CCc2cccc3c2[C@@H]1Cc1ccc(O)c(O)c1-3` [(6aS)-6-methyl-5,6,6a,7-tetrahydro-4H-dibenzo[de,g]quinoline-10,11-diol], for which the “MN survival on Day 3” value is “the most significant outcome” in the experiment with induced MN cells (setting [2]); “beneficial at reducing toxicity caused by iAstrocytes from some sporadic patients over others” with induced MN cells (iAstrocytes and induced MNs from sALS patients). Also, the “toxicity of astrocytes to MN cells (MN survival on Day 3)” value with induced MN cells (iAstrocytes and induced MNs from ALS patient with SOD1 mutation) is given as “most effectively dampened the toxicity of SOD1-derived astrocytes”. Besides, the “percentage of misfolded SOD1 perinuclear aggregates (DMSO = 100%)” value in the experiment with misfolded SOD1 (FIG. 9, 10uM, 48 hours, iAstrocytes of sALS, SOD1, C9orf72 patients and controls, listed as (6a5)-6-methyl-5,6,6a,7-tetrahydro-4H-dibenzo[de,g]quinoline-10,11-diol) is “reduction of misfolded SOD1 in all patient lines treated; also recorded: significant reduction in misfolded SOD1 in 6 different patient lines”. Moreover, the “SOD1 misfolding in human iAstrocytes” value in the experiment with misfolded SOD1 is recorded as “Reduced SOD1 misfolding”. For the same molecule, the “misfolded SOD1 positive cells” value with misfolded SOD1 (SOD1 astrocytes compared with other cell types) is listed as “greatest decrease in SOD1 astrocytes”; in the experiment on misfolded SOD1 (all cell types (control, C9orf72, SOD1, sporadic iAstrocytes)) it was “reduction of misfolded SOD1 positive cells across all cell types”. Further, in experiment [1], the “mouse Hb9GFP+ motor neuron rescue: percentage of motor neuron survival” value was “increase in percentage of motor neuron survival”. Moreover, in experiment [1] (iAstrocytes from ALS patients with C9orf72 mutation, mouse MNs, untreated no more than 33%), the “MN survival on Day 3 (percentage of survived MN cells observed on Day 1)” value is recorded as “up to 38%”. The “survival of MN cells on Day 3” value is “most significant improvement” in experiment [1] (iAstrocytes from ALS patients with SOD1 mutation, mouse MNs) and “significantly improved” in experiment [1] (setting [3]).
As for `C=C1CC[C@@H]2[C@](C)(CO)[C@H](O)CC[C@@]2(C)[C@@H]1C/C=C1/C(=O)OC[C@H]1O` [andrographolide, reference compound], the “MN survival on Day 3” value in the experiment with induced MN cells (setting [2]) was “the most significant outcome”. Further, in the experiment with misfolded SOD1, the “SOD1 misfolding in human iAstrocytes” value is recorded as “Reduced SOD1 misfolding”. In addition, in experiment [1], the “mouse Hb9GFP+ motor neuron rescue: percentage of motor neuron survival” value is “increase in percentage of motor neuron survival”. The “survival of MN cells on Day 3” value is listed as “significantly improved” in experiment [1] (setting [3]) and “most significantly improved” in experiment [1] (iAstrocytes from three sporadic ALS (sALS) patients, mouse MNs).
Consider `Nc1nc2ccc(OC(F)(F)F)cc2s1` [riluzole, reference compound], for which, in the experiment on misfolded SOD1, the “SOD1 misfolding in human iAstrocytes” value is listed as “Reduced SOD1 misfolding”.
